Biological target: T1, USP28 (His-tagged USP28-FL-mammalian) (Homo sapiens, UniProt Q96RU2)
T1 construct: Expression of USP28 (1-1077)-TEV-6*His (pTT5 vector); made in house; host or cells: Expi293f cells (pTT5 vector)
T1 sequence (Q96RU2 1-1077): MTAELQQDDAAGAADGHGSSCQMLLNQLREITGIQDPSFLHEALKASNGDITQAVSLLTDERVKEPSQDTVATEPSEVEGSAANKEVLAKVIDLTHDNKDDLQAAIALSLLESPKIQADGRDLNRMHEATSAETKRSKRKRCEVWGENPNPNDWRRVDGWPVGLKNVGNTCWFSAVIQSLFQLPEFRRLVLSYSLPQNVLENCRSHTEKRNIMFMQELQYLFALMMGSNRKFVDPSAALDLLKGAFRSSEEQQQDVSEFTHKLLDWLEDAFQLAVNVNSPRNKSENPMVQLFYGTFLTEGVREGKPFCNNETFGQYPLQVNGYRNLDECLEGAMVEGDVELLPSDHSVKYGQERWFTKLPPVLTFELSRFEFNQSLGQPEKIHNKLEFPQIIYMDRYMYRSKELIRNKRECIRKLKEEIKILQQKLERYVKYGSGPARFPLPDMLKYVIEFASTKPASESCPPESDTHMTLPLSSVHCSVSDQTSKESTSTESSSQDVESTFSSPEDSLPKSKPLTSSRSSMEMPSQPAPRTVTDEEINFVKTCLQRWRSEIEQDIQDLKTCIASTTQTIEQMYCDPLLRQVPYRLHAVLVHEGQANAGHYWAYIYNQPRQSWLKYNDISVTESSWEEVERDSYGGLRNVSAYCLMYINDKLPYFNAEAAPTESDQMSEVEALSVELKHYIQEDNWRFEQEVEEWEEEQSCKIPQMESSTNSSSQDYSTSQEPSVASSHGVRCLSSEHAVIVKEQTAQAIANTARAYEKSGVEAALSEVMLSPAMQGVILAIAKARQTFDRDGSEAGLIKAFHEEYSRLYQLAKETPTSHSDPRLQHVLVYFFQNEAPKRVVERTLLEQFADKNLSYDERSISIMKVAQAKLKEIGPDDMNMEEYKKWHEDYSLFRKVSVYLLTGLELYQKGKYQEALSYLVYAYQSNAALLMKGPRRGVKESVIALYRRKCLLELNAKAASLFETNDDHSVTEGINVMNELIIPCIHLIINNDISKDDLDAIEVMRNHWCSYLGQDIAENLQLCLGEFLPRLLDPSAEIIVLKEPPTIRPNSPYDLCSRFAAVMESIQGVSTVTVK
Assay: Ubiquitin-Rhodamine 110 Assay for USP28 Activity, Example A-1(a)
Assay type: biochemical
Settings: Ubiquitin-Rhodamine 110 assay, format Example A-1(a); read-out: USP28 A-1(a) IC50 range
Summary of the method: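 IC50 from 4-parameter logistic fit of percent inhibition versus no-enzyme and DMSO controls; compounds 25 μM to 1.3 nM, 3-fold. Ub-Rh110 cleavage (25 nM, below Km) by […] mammalian-expressed USP28-FL-His ran 45 min at room temperature, stopped with 10 mM citric acid, read ex 485/em 535.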

| Compound | IC50 |
| --- | --- |
| Cc1ccc2c(N)c(C(=O)N[C@@H]3CCc4c(ccc(N5CC6CCC(C5)N6)c4C#N)C3)sc2n1 (single isomer, unassigned) [Example 14-1] | 1 to 50 nM |
| Cc1ccc2c(N)c(C(=O)N[C@H]3CCc4c(ccc(N5CC6CCC(C5)N6)c4C#N)C3)sc2n1 (single isomer, unassigned) [Example 14-2] | 50 to 200 nM |
| Cc1ccc2c(N)c(C(=O)N[C@@H]3CCc4cc(N5CC6CCC(C5)N6)c(C#N)cc4C3)sc2n1 (single isomer, unassigned) [Example 14-3] | 200 to 2000 nM |
| Cc1ccc2c(N)c(C(=O)N[C@H]3CCc4cc(N5CC6CCC(C5)N6)c(C#N)cc4C3)sc2n1 (single isomer, unassigned) [Example 14-4] | 1 to 50 nM |
| Cc1cnc2c(N)c(C(=O)N[C@@H]3CCc4c(ccc(N5CC6CCC(C5)N6)c4C#N)C3)sc2n1 (single isomer, unassigned) [Example 14-5] | 1 to 50 nM |
| Cc1cnc2c(N)c(C(=O)N[C@H]3CCc4c(ccc(N5CC6CCC(C5)N6)c4C#N)C3)sc2n1 (single isomer, unassigned) [Example 14-6] | 200 to 2000 nM |
| Cc1cnc2c(N)c(C(=O)N[C@@H]3CCc4cc(N5CC6CCC(C5)N6)c(C#N)cc4C3)sc2n1 (single isomer, unassigned) [Example 14-7] | 200 to 2000 nM |
| Cc1cnc2c(N)c(C(=O)N[C@H]3CCc4cc(N5CC6CCC(C5)N6)c(C#N)cc4C3)sc2n1 (single isomer, unassigned) [Example 14-8] | 1 to 50 nM |
